Each structure is given as a SMILES string.

Results on 13 molecules are retold here after ChEMBL document CHEMBL1155129, “Hepatitis C NS5B polymerase inhibitors: 4,4-Dialkyl-1-hydroxy-3-oxo-3,4-dihydronaphthalene-3-yl benzothiadiazine derivatives” (Bioorg Med Chem Lett, 2008).

For data set [1], the system named is Hepatitis C virus. The data set is described as follows: Antiviral activity against HCV 1b in presence of 5% fetal calf serum by replicon based assay. The class given is functional, organism-based, Hepacivirus hominis. To be noted: genotype 1b.
The subject of data set [2] is Hepatitis C virus. The data set is described as follows: Antiviral activity against HCV 1a in presence of 5% fetal calf serum by replicon based assay. The class given is functional, organism-based, Hepacivirus hominis. The settings on record: subtype 1a. A general note: In antiviral work, replicon cells carry a viral genome segment that copies itself.
Data set [3] is described as follows: Inhibition of HCV 1a NS5B polymerase. Set-up: species or system Hepatitis C virus subtype 1a.
In data set [4] the test system is Hepatitis C virus. The data set is described as follows: Inhibition of HCV 1b NS5B polymerase. Set-up: species or system Hepatitis C virus subtype 1b.
Data set [5] is described as follows: Drug level in rat liver at 5 mg/kg, po after 1 hr. The class given is ADME, organism-based. Set-up: dose 5 mg/kg, route oral. The settings on record: read-out: Activity.
A short description of data set [6]: Plasma clearance in rat at 5 mg/kg, iv. The class given is ADME, organism-based. Set-up: dose 5 mg/kg, route intravenous.
Data set [7] can be described thus: Ratio of drug level in liver to plasma in rat at 5 mg/kg, po after 6 hrs. The class given is ADME, organism-based. To be noted: other tissue. Set-up: dose 5 mg/kg, route oral.
Data set [8] is described as follows: Drug level in rat liver at 5 mg/kg, po after 12 hrs. The class given is ADME, organism-based. The arrangement: dose 5 mg/kg, route oral. To be noted: read-out: Activity.
The nature of data set [9]: Drug level in rat liver at 5 mg/kg, po after 6 hrs. To be noted: read-out: Activity. Set-up: dose 5 mg/kg, route oral. The class given is ADME, organism-based.
A short description of data set [10]: Volume of distribution at terminal phase in rat at 5 mg/kg, iv. The settings on record: in vivo, read-out: Vbeta. The class given is ADME, organism-based. Set-up: dose 5 mg/kg, route intravenous.
Data set [11] can be described thus: Volume of distribution at steady state in rat at 5 mg/kg, iv. The class given is ADME, organism-based. Set-up: dose 5 mg/kg, route intravenous. To be noted: in vivo, read-out: Vdss.
The nature of data set [12]: Drug level in rat plasma at 5 mg/kg, po after 6 hrs. The class given is ADME, organism-based. Set-up: dose 5 mg/kg, route oral. To be noted: read-out: Activity.
Data set [13] can be described thus: AUC (0 to infinity) in rat at 5 mg/kg, po. The class given is ADME, organism-based. Set-up: time infinity, dose 5 mg/kg, route oral. To be noted: plasma.
Data set [14] in a line: Ratio of drug level in liver to plasma in rat at 5 mg/kg, po after 1 hr. The settings on record: other tissue. The class given is ADME, organism-based. Set-up: dose 5 mg/kg, route oral.
Data set [15] can be described thus: Oral bioavailability in rat at 5 mg/kg. The class given is ADME, organism-based. The settings on record: in vivo.
Data set [16] is described as follows: Half life in rat at 5 mg/kg, iv. Set-up: dose 5 mg/kg, route intravenous. The class given is ADME, organism-based. The settings on record: in vivo.
Data set [17] is described as follows: Drug level in rat plasma at 5 mg/kg, po after 12 hrs. The class given is ADME, organism-based. Set-up: dose 5 mg/kg, route oral. The settings on record: read-out: Activity.
Data set [18] is described as follows: Half life in rat at 5 mg/kg, po. The class given is ADME, organism-based. Set-up: dose 5 mg/kg, route oral. To be noted: in vivo.
Data set [19] can be described thus: Drug level in rat liver at 5 mg/kg, po after 24 hrs. The class given is ADME, organism-based. The arrangement: dose 5 mg/kg, route oral. The settings on record: read-out: Activity.
A short description of data set [20]: Tmax in rat at 5 mg/kg, po. The class given is ADME, organism-based. Set-up: dose 5 mg/kg, route oral. The settings on record: in vivo.
A short description of data set [21]: Ratio of drug level in liver to plasma in rat at 5 mg/kg, po after 12 hrs. The class given is ADME, organism-based. Set-up: dose 5 mg/kg, route oral. To be noted: other tissue.
Data set [22] in a line: AUC (0 to infinity) in rat at 5 mg/kg, iv. The class given is ADME, organism-based. To be noted: plasma. Set-up: time infinity, dose 5 mg/kg, route intravenous.
Data set [23] is described as follows: Cmax in rat plasma at 5 mg/kg, po. The class given is ADME, organism-based. Set-up: dose 5 mg/kg, route oral.
The nature of data set [24]: Drug level in rat plasma at 5 mg/kg, po after 1 hr. The class given is ADME, organism-based. The arrangement: dose 5 mg/kg, route oral. The settings on record: read-out: Activity.

In general, EC50 refers to the midpoint of the concentration-response curve. Broadly, the IC50 is the midpoint of a concentration-inhibition curve. Read a high IC50 as weaker potency. Take `CC(C)CCC1(CCC(C)C)C(=O)C(C2=NS(=O)(=O)c3cc(OCC(N)=O)ccc3N2)=C(O)c2ccccc21`: the EC50 was above 3000 nM with Hepatitis C virus [1] and 10100 nM with Hepatitis C virus [2]. The same molecule displayed an IC50 in data set [3] of 320 nM.

For the molecule `CCCC1(CCC)C(=O)C(C2=NS(=O)(=O)c3cc(NS(C)(=O)=O)ccc3N2)=C(O)c2ccccc21`, the EC50 in the data set with Hepatitis C virus [1] is 22 nM. The IC50 in the data set with Hepatitis C virus [4] was 130 nM; in data set [3], 99 nM.

As for `CCCC1(CCC)C(=O)C(C2=NS(=O)(=O)c3cc(OCC(N)=O)ccc3N2)=C(O)c2ccccc21`, the EC50 is 810 nM in the data set on Hepatitis C virus [1] and above 10000 nM with Hepatitis C virus [2]. Also, the IC50 in [3] stood at 240 nM.

A word on the clearance: it is the volume of plasma or blood freed of the substance per unit of time. Usually AUC(0-inf) stands for total exposure, with the tail of the curve extrapolated. A lower AUC(0-inf) goes with less exposure. As a reminder, the bioavailability is the share of a dose that reaches the circulation, judged against a reference dose that is usually intravenous. Read a low bioavailability as little systemic uptake. By half-life is commonly meant the time in which the quantity being followed falls by half. One may read the Tmax as the time from dosing to the highest level. What is called Cmax is the peak of the concentration-time curve. Regarding `CCCCC1(CCCC)C(=O)C(C2=NS(=O)(=O)c3cc(NS(C)(=O)=O)ccc3N2)=C(O)c2ccccc21`, the concentration at 1 h in data set [5] turned out to be 14200 ng/g; in data set [24], 450 ng/mL. Moreover, the EC50 was 48 nM in the data set on Hepatitis C virus [1] and 280 nM with Hepatitis C virus [2]. In [6], this molecule showed a clearance of 11.7 mL/min/kg. Also, the Ratio amounted to 48.2 mL/g in [7], 34.3 mL/g in [14] and 17.3 mL/g in [21]. For the same molecule, the IC50 with Hepatitis C virus [4] was found to be 73 nM; in [3], 10 nM. Also, the concentration at 12 h in data set [8] is 4600 ng/g; in data set [17], 250 ng/mL. Moreover, the concentration at 6 h worked out at 20800 ng/g in data set [9] and 410 ng/mL in [12]. For the same molecule, the Vd in data set [10] amounted to 6.11 L/kg; in data set [11] it was 1.87 L/kg. The values for the AUC(0-inf) in data set [13] and in [22] were 6400 ng·h/mL and 7300 ng·h/mL, respectively. The molecule also gave a bioavailability in data set [15] of 94.3%. Besides, the half-life in [16] and in data set [18] was 4.3 h each time. Also, the concentration at 24 h in data set [19] amounted to 150 ng/g. In addition, in [20], the Tmax came out at 3 h. This molecule also showed a Cmax in [23] of 580 ng/mL.

With `CC(C)CCC1(CCC(C)C)C(=O)C(C2=NS(=O)(=O)c3cc(NS(C)(=O)=O)ccc3N2)=C(O)c2ccccc21`, the IC50 with Hepatitis C virus [4] was determined as 390 nM; in data set [3], 68 nM.

For the molecule `CC1(C)C(=O)C(C2=NS(=O)(=O)c3cc(NS(C)(=O)=O)ccc3N2)=C(O)c2ccccc21`, the IC50 was found to be 6260 nM with Hepatitis C virus [4] and 930 nM in [3].

Turning to `O=c1c(C2=NS(=O)(=O)c3ccccc3N2)c(O)c2ccccc2n1NC1CCC1`, the EC50 in the data set with Hepatitis C virus [1] is 100 nM. The figures for the half-maximal inhibitory concentration (IC50) (in the data set with Hepatitis C virus [4]; in data set [3]) were 480 nM and 280 nM, respectively.

For `CCCCC1(CCCC)C(=O)C(C2=NS(=O)(=O)c3ccccc3N2)=C(O)c2ccccc21`, the IC50 in the data set with Hepatitis C virus [4] worked out at 2270 nM; in data set [3] it was 990 nM.

`CC1(C)C(=O)C(C2=NS(=O)(=O)c3ccccc3N2)=C(O)c2ccccc21`: the values for the IC50 (in the data set with Hepatitis C virus [4]; in data set [3]) were 6260 nM and 2200 nM, respectively.

Consider `CC(C)CCC1(CCC(C)C)C(=O)C(C2=NS(=O)(=O)c3ccccc3N2)=C(O)c2ccccc21`, for which, in data set [3], it took 820 nM to reach half-maximal inhibition (IC50).

Turning to `CCCC1(CCC)C(=O)C(C2=NS(=O)(=O)c3ccccc3N2)=C(O)c2ccccc21`, inhibition in [3] was half-maximal at 2200 nM (IC50).

In the case of `CC(C)CCn1c(=O)c(C2=NS(=O)(=O)c3ccccc3N2)c(O)c2ccccc21`, the EC50 in the data set with Hepatitis C virus [1] worked out at 250 nM. Besides, half-maximal inhibition in [3] (IC50) was put at 540 nM.

Regarding `CCCCC1(CCCC)C(=O)C(C2=NS(=O)(=O)c3cc(OCC(N)=O)ccc3N2)=C(O)c2ccccc21`, the EC50 in the data set with Hepatitis C virus [1] stood at 290 nM; with Hepatitis C virus [2] it was 9640 nM. Moreover, the IC50 turned out to be 330 nM with Hepatitis C virus [4] and 260 nM in data set [3].
